Assay results: the supplement of paper PMC10307832

Legend:
Test in all cases: relative viability (nuclei count vs DMSO), 5 days (fraction); higher = more cells survive
[1] = compound: C=CCn1c(=O)c2cnc(Nc3ccc(N4CCN(C)CC4)cc3)nc2n1-c1cccc(C(C)(C)O)n1 [Adavosertib] + CC1(C)CCC(c2ccc(Cl)cc2)=C(CN2CCN(c3ccc(C(=O)NS(=O)(=O)c4ccc(N[C@H](CCN5CCOCC5)CSc5ccccc5)c(S(=O)(=O)C(F)(F)F)c4)cc3)CC2)C1 [Navitoclax] (partner 0.5 µM)
In short: (§1)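 Values are medians from duplicate plates. Each reflects relative viability, defined as the nuclei count of treated wells over that of vehicle wells. Lung cancer cell lines in 1536-well plates were pin-tool dosed one day after seeding with one drug alone or with a fixed anchor-drug dose plus five library-drug doses (not always all listed) in √10 steps, then fixed, stained and imaged at 4× after 5 days.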

[2] = compound: C=CCn1c(=O)c2cnc(Nc3ccc(N4CCN(C)CC4)cc3)nc2n1-c1cccc(C(C)(C)O)n1 [Adavosertib] + CC(=O)Nc1cccc(-n2c(=O)n(C3CC3)c(=O)c3c(Nc4ccc(I)cc4F)n(C)c(=O)c(C)c32)c1 [Trametinib] (partner 0.02 µM)
In short: as §1

[3] = compound: C=CCn1c(=O)c2cnc(Nc3ccc(N4CCN(C)CC4)cc3)nc2n1-c1cccc(C(C)(C)O)n1 [Adavosertib] + CC(=O)c1c(C)c2cnc(Nc3ccc(N4CCNCC4)cn3)nc2n(C2CCCC2)c1=O [Palbociclib] (partner 0.5 µM)
In short: as §1

[4] = compound: C=CCn1c(=O)c2cnc(Nc3ccc(N4CCN(C)CC4)cc3)nc2n1-c1cccc(C(C)(C)O)n1 [Adavosertib] + Cc1nc(Nc2ncc(C(=O)Nc3c(C)cccc3Cl)s2)cc(N2CCN(CCO)CC2)n1 [Dasatinib] (partner 0.075 µM)
In short: as §1

[5] = compound: C=CCn1c(=O)c2cnc(Nc3ccc(N4CCN(C)CC4)cc3)nc2n1-c1cccc(C(C)(C)O)n1 [Adavosertib] + C[C@]1(O)C[C@@H](c2nc(-c3ccc4ccc(-c5ccccc5)nc4c3)c3c(N)nccn32)C1 [Linsitinib] (partner 1 µM)
In short: as §1

Cell Line	relative viability ([1]; first compound 0.01 µM)	relative viability ([1]; first compound 0.03162 µM)	relative viability ([1]; first compound 0.1 µM)	relative viability ([1]; first compound 0.3162 µM)	relative viability ([2]; first compound 0.01 µM)	relative viability ([2]; first compound 0.03162 µM)	relative viability ([2]; first compound 0.1 µM)	relative viability ([2]; first compound 0.3162 µM)	relative viability ([3]; first compound 0.01 µM)	relative viability ([3]; first compound 0.03162 µM)	relative viability ([3]; first compound 0.1 µM)	relative viability ([3]; first compound 0.3162 µM)	relative viability ([4]; first compound 0.01 µM)	relative viability ([4]; first compound 0.03162 µM)	relative viability ([4]; first compound 0.1 µM)	relative viability ([4]; first compound 0.3162 µM)	relative viability ([5]; first compound 0.01 µM)	relative viability ([5]; first compound 0.03162 µM)	relative viability ([5]; first compound 0.1 µM)	relative viability ([5]; first compound 0.3162 µM)
HCC-827	1.06	1.07	1.18	0.993	0.533	0.567	0.492	0.522	0.467	0.452	0.533	0.532	0.282	0.284	0.264	0.282	0.985	0.974	1.03	0.991
HOP-62	1.12	1.16	1.4	1.35	0.357	0.406	0.356	0.384	0.496	0.513	0.59	0.486	0.693	0.678	0.644	0.661	0.981	1.02	1.09	1.03
LC-2-ad	0.452	0.411	0.392	0.216	0.865	0.908	0.914	1.04	0.535	0.467	0.55	0.519	0.539	0.654	0.582	0.493	0.773	0.883	0.781	0.729
LCLC-97TM1		0.372	0.473	0.257	0.223	0.171	0.227	0.21	0.25	0.213	0.237	0.294	0.881	0.675	0.886	0.801		0.19	0.17	0.169
LK-2	0.98	0.882	0.989	0.808	0.759	0.823	0.701	0.84	0.7	0.937	0.879	0.761	0.286	0.229	0.291	0.359	0.761	0.742	0.522	0.424
LOU-NH91	0.718	0.688	0.663	0.53	0.773	0.799	0.828	0.774	0.609	0.497	0.548	0.531	0.539	0.565	0.622	0.513	1	0.938	0.964	0.871
LU99A	0.895	0.733	0.901	0.652	0.624	0.61	0.634	0.464	0.404	0.373	0.393	0.409	0.472	0.51	0.532	0.355	0.575	0.656	0.499	0.417
LXF-289	0.959	1.03	0.992	1.03	0.746	0.696	0.701	0.678	0.576	0.619	0.656	0.735	0.309	0.22	0.213	0.243	0.936	0.97	0.944	1.02
NCI-H23	0.89	0.677	0.938	0.368	0.363	0.395	0.339	0.226	0.503	0.53	0.419	0.219	0.737	0.838	0.788	0.412	0.53	0.612	0.444	0.29
NCI-H322M		1.25	1.12	0.953	0.48	0.489	0.471	0.389	0.439	0.479	0.417	0.463	0.238	0.225	0.247	0.255		0.789	0.982	0.535
NCI-H441	0.645	0.741	0.64	0.401	0.432	0.509	0.373	0.423	0.234	0.25	0.241	0.197	0.5	0.511	0.575	0.396	0.552	0.5	0.496	0.329
NCI-H460	0.942	1.18	1.45	0.861	0.179	0.137	0.197	0.124	0.182	0.19	0.181	0.125	0.477	0.519	0.429	0.359	0.971	0.777	0.594	0.285
NCI-H520	1.12	1.1	1.09	0.791	0.797	0.65	0.634	0.629	0.22	0.214	0.229	0.246	0.194	0.181	0.183	0.217	0.883	0.794	1.11	0.874
NCI-H647	1.15	1.17	1.12	0.985	0.561	0.432	0.428	0.415	0.408	0.461	0.261	0.316	0.2	0.21	0.259	0.107	1.12	1.04	1.28	0.454
NCI-H727	0.468	0.566	0.678	0.372	0.427	0.383	0.396	0.385	0.584	0.699	0.637	0.658	0.316	0.478	0.338	0.301	0.334	0.249	0.311	0.32
NCI-H838	1.16	1.11	1.18	1.13	0.488	0.531	0.503	0.582	0.232	0.211	0.224	0.213	0.291	0.326	0.31	0.285	1.01	1.05	1	1.09

Cell Line	relative viability ([1]; first compound 0.01 µM)	relative viability ([1]; first compound 0.03162 µM)	relative viability ([1]; first compound 0.1 µM)	relative viability ([1]; first compound 0.3162 µM)	relative viability ([2]; first compound 0.01 µM)	relative viability ([2]; first compound 0.03162 µM)	relative viability ([2]; first compound 0.1 µM)	relative viability ([2]; first compound 0.3162 µM)	relative viability ([3]; first compound 0.01 µM)	relative viability ([3]; first compound 0.03162 µM)	relative viability ([3]; first compound 0.1 µM)	relative viability ([3]; first compound 0.3162 µM)	relative viability ([4]; first compound 0.01 µM)	relative viability ([4]; first compound 0.03162 µM)	relative viability ([4]; first compound 0.1 µM)	relative viability ([4]; first compound 0.3162 µM)	relative viability ([5]; first compound 0.01 µM)	relative viability ([5]; first compound 0.03162 µM)	relative viability ([5]; first compound 0.1 µM)	relative viability ([5]; first compound 0.3162 µM)
NCI-H1355	0.996	0.848	0.987	0.852	0.442	0.373	0.445	0.457	0.417	0.401	0.395	0.408	0.673	0.643	0.696	0.569	0.892	0.701	0.872	0.808
NCI-H1395	1.15	1.17	1.25	0.986	1.06	1.12	1.08	0.864	0.616	0.657	0.591	0.674	0.427	0.407	0.416	0.439	1.17	1.18	1.2	0.955
NCI-H1437	1.05	1.13	1.16	1.11	0.546	0.545	0.484	0.414	0.333	0.313	0.305	0.35	0.404	0.323	0.375	0.43	1.08	1.11	1.12	1.09
NCI-H1651	0.993	1.13	1.17	0.748	0.841	0.85	0.864	0.871	0.499	0.523	0.572	0.612	0.479	0.409	0.396	0.282	1.03	1.02	0.98	0.783
NCI-H1666	0.927	0.83	0.935	0.673	0.797	0.782	1.02	0.813	0.613	0.64	0.662	0.699	0.754	0.821	0.854	0.733	0.763	1.14	0.813	0.754
NCI-H1734	0.866	0.818	0.877	0.821	0.64	0.726	0.711	0.711	0.332	0.326	0.353	0.375	0.53	0.469	0.464	0.318	0.992	0.953	0.916	0.938
NCI-H1755	0.983	1	1.02	0.926	0.818	0.78	0.818	0.744	0.449	0.41	0.443	0.446	0.406	0.424	0.447	0.384	0.997	0.956	0.992	0.997
NCI-H1792	0.529	0.659	0.655	0.643	0.378	0.505	0.448	0.42		0.661	0.779	0.829		0.753	0.942	0.865	0.601	0.519	0.493	0.559
NCI-H1793	0.338	0.405	0.422	0.425	0.44	0.421	0.501	0.395	0.293	0.293	0.298	0.275	0.392	0.308	0.439	0.36	0.822	0.765	0.915	0.869
NCI-H1915	0.831	0.766	0.804	0.786	0.329	0.338	0.322	0.33	0.535	0.564	0.645	0.644	0.325	0.315	0.352	0.293	1.11	1.12	1.14	1.17
NCI-H1944	1.05	1.02	1.07	1.02	0.376	0.377	0.378	0.372	0.298	0.317	0.317	0.319	0.205	0.201	0.218	0.199	1.17	1.13	1.23	1
NCI-H1975	1.17	1.25	1.01	0.483	0.303	0.309	0.327	0.415	0.551	0.559	0.488	0.608	0.383	0.3	0.268	0.232	1	0.951	0.891	0.522
NCI-H1993	1.02	0.977	1.01	0.934	0.42	0.449	0.535	0.561	0.656	0.701	0.725	0.934	0.63	0.503	0.719	0.618	0.769	0.793	0.797	0.749
NCI-H2009	1.14	1.18	1.21	1.23	0.291	0.308	0.254	0.217	0.195	0.2	0.258	0.215	0.318	0.294	0.297	0.178	1.23	1.24	1.24	1.2
NCI-H2023	1.03	0.959	0.912	0.6	0.575	0.521	0.62	0.267	0.412	0.377	0.331	0.202	0.584	0.583	0.471	0.226	0.638	0.742	0.505	0.392
